pIC50: −log10 of the molar value.

Experimental findings from patent US20100203110A1, “Therapeutics for Cancer Using 3-Bromopyruvate and Other Selective Inhibitors of ATP Production” (The Johns Hopkins University, priority 2006, published 2010) are described below.

In one experiment the test system is VX2 tumor glycolysis. Put plainly: Glycolytic activity (lactic acid formation) of VX2 tumor slices. Type of experiment: cell-based, rabbit. To be noted: for inhibition of VX2 tumor glycolysis (screen): 6 mM agent, 6 mM glucose, 37° C., 5 h. As to the method: Glycolysis was assayed by monitoring the formation of lactic acid following the addition of glucose to a medium containing VX2 tumor slices. Specifically, freshly excised tumors were washed 3 times at 4° C. in 20 ml Chance Hess Medium containing 6.2 mM KCl, 154 mM NaCl, and 11 mM NaPi, pH 7.4. Slices, 1 g each, were then prior incubated for 30 min in a Lab-Line incubator-shaker at 37° C. in 2 ml of the same medium while shaking at 50 rpm. Glucose was then added to give a final concentration of 6 mM, after which the incubation/shaking process was continued with 0.2 ml samples being removed every 30 min for up to 2 h. These samples were subjected to centrifugation at 14,000 rpm in an Eppendorf Centrifuge (Model 5415C). Then, aliquots of the supernatant, 0.01 ml, were removed from each sample, diluted with 0.03 ml of water and subjected to lactic acid determination using the kit supplied by Sigma. The latter contains, in addition to lactic dehydrogenase and NAD+, hydrazine, and glycine buffer, pH 9.2. The mixture was incubated for 30 min at 25° C. after which the absorbance due to formation of NADH was determined at 340 nm using a Gilford Model 260 spectrophotometer. To assess the elevation of the glycolytic activity of the VX2 tumor over that of liver tissue, parallel studies were always carried out in an identical manner with 1 g liver slices derived from the host liver. Finally, in those cases where agents were tested for their capacity to inhibit glycolysis, these were introduced into the system at the prior incubation step with all subsequent steps being run in parallel with those described above for the VX2 tumor or liver alone.
The screen included the following 9 compounds: 2-deoxyglucose (2DOG), 2-fluoro-2-deoxyglucose, 6-fluoro-6-deoxyglucose, 3-O-methyl glucose, 5-thio-D-glucose-6-phosphate, L-glucose, D-xylose, D-lyxose, and 3-bromopyruvic acid (3BrPA). The screen was conducted by incubating VX2 tumor slices in a medium containing 6 mM glucose with 6 mM of each of these agents at 37° C. for 5 h. The use of 6 mM glucose in the medium was used to mimic the maximal amount of glucose that might be in the blood in a real in vivo situation.
To compare the inhibitory effects of 2DOG and 3BrPA on the glycolytic capacity of the isolated liver implanted VX2 tumor, various concentrations of 2DOG and 3BrPA were prior incubated for 30 min at 37° C. with 1 g VX2 tumor slices and glycolysis was monitored.

Another experiment relates to AS-30D hepatoma cells. In words: Killing of AS-30D hepatoma cells (trypan blue). Type of experiment: cell-based, rat. The following applies: 20 mM, 12 h. How it is done:
AS-30D hepatoma cells grown in the peritoneal cavity of Sprague Dawley female rats (see Materials) were adapted to grow in tissue culture in Dulbecco's modified Eagle's medium containing 10% fetal bovine serum. Cells were maintained at 37° C. in a humidified atmosphere containing 5% CO2, and counted in a Neubauer chamber after trypan blue dye addition (cell/dye volume=1/1) by visualization under a Nikon inverted microscope.
The studies described above using the VX2 tumor model for liver cancer predict that 2DOG and 3BrPA may have the capacity to kill hepatoma cells expressing the high glycolytic/high hexokinase phenotype. […] Cell killing was assessed in these experiments by counting those cells in which trypan blue had entered.

In the case of `O=C[C@H](O)[C@@H](O)[C@H](O)CO` [D-xylose], the “inhibition of VX2 tumor glycolysis (screen)” value (from here on “inhibition … (screen)”) with VX2 tumor glycolysis (VX2 tumor slices) is on record as “ineffective”.
As for `O=CC[C@@H](O)[C@H](O)[C@H](O)CO` [2DOG, 2-deoxyglucose], the “inhibition … (screen)” value with VX2 tumor glycolysis (VX2 tumor slices) is “ineffective”. In addition, in the experiment with VX2 tumor glycolysis (Oryctolagus cuniculus, 0.5 h, prior incubated 30 min at 37° C. with 1 g VX2 tumor slices, read-out: half maximal inhibition of glycolysis), the pIC50 is about 1.82. For the same compound, the “concentration for maximal / complete inhibition of glycolysis” value in the experiment with VX2 tumor glycolysis (VX2 tumor slices, 2DOG maximal (70%), 3BrPA complete) is given as about 50 mM. Besides, in the experiment with VX2 tumor glycolysis (at almost 50 mM, VX2 tumor slices), the “maximal inhibition of glycolysis” value came to 70%. Also, the cell killing result in the experiment on AS-30D hepatoma cells was “about 80%”.
As to `O=C[C@@H](O)[C@H](O)[C@@H](O)[C@@H](O)CO` [L-glucose], the “inhibition … (screen)” value in the experiment on VX2 tumor glycolysis (VX2 tumor slices) was “ineffective”.
Take `O=C[C@H](F)[C@@H](O)[C@H](O)[C@H](O)CO` [2-fluoro-2-deoxyglucose]: the “inhibition … (screen)” value in the experiment on VX2 tumor glycolysis (VX2 tumor slices) is listed as “ineffective”.
For the compound `O=C[C@H](O)[C@@H](O)[C@H](O)[C@H](O)CF` [6-fluoro-6-deoxyglucose], in the experiment with VX2 tumor glycolysis (VX2 tumor slices), the “inhibition … (screen)” value was “ineffective”.
Take `O=C[C@@H](O)[C@@H](O)[C@H](O)CO` [D-lyxose]: in the experiment on VX2 tumor glycolysis (VX2 tumor slices), the “inhibition … (screen)” value is “ineffective”.
Still for that read-out and setting: the same measure for `CO[C@@H]([C@H](O)[C@H](O)CO)[C@@H](O)C=O` [3-O-methyl glucose]: “ineffective”; for `O=C[C@H](O)[C@@H](O)[C@H](O)[C@H](S)COP(=O)(O)O` [5-thio-D-glucose-6-phosphate]: “ineffective”.
